According to US5994342A, “3-(substituted methyl)-4-oxa-1-azabicyclo[3.2.0]heptan-7-one derivatives useful as antitumor agents” (priority 1994, dated 1999):
Converted amounts (≈) assume the structure as drawn. Structures can show the parent of a compound that is named as a salt. Where two headings read alike, the source gives them in different places.

What was measured:
[1] = test system: L-1210 (S) cells; test: In vitro L1210 cell cytotoxicity (microculture tetrazolium assay), sensitive line; type: cell-based; conditions: Mus musculus, L1210, 72 h, read-out: Cell Toxicity L-1210 (S) (TD50)
Description: (§1) In Vitro L1210 and P388 Cell Cytotoxicity Assay
(§2) Cells were counted using neubauer hemocytometer and seed in 96 well plates at 100 μl of 0.5×10^4 cells per ml. […] Control wells were identical except that the test compound was absent. These were cultured for three days. Results were assayed using the microculture tetrazolium assay briefly. 50 μl of MTT formazoan working solution (1:5 v/v in culture medium) was added to each well and cultures were incubated at 37° C. for 4 hrs. Culture plates were centrifuged at low speed for 5 minutes. All but 10-20 μl of culture medium supernatant was removed by slow aspiration and […] and read at OD540 on a multiscan spectrophotometer. Inhibition value of cell growth was calculated based on optical density using the following equation; [formula]
(§3) TD50 values were calculated from linear regression ines of the log-logit plot.

[2] = test system: P388 (S) cells; test: In vitro P388 cell cytotoxicity (microculture tetrazolium assay), sensitive line; type: cell-based; conditions: Mus musculus, 72 h, read-out: Cell Toxicity P388 (S) (TD50)
Description: as §1, §2, §3

[3] = test system: P388 (R) cells; test: In vitro P388 cell cytotoxicity (microculture tetrazolium assay), resistant line; type: cell-based; conditions: Mus musculus, read-out: Cell Toxicity P388 (R) (TD50)
Description: as §1, §2, §3

[4] = test system: L-1210 (R) cells; test: In vitro L1210 cell cytotoxicity (microculture tetrazolium assay), resistant line; type: cell-based; conditions: Mus musculus, L1210, 72 h, read-out: Cell Toxicity L-1210 (R) (TD50)
Description: as §1, §2, §3

[5] = test system: KB cells; test: In vitro KB cell cytotoxicity assay (crystal violet); type: cell-based; conditions: Homo sapiens, 72 h, 3 days culture, read-out: KB Cell Cytotoxicity TD50
How it was run: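 Cells seeded at 3×10^4 cells/ml in Eagle's MEM with 10% calf serum, cultured one day, then exposed to compound for three days at 37° C, 5% CO2. Glutaraldehyde-fixed cells stained with 0.05% crystal violet, eluted and read at OD540; TD50 from linear regression of log-logit plot of growth inhibition.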

[6] = test system: Sarcoma 180; test: In vivo antitumor activity against Sarcoma 180; parameters: species or system male ICR mice; conditions: i.p., days 1, 5 and 9
Description: In Vivo Antitumor Activity Against Sarcoma 180
The compounds of general formula (I) were tested in vivo against Sarcoma 180 xenografted tumor to mice as illustrated herein after.
Sarcoma 180, 5×10^6 cells were inoculated by S.C. to male ICR mice (6 week old) on day 0. Drugs were administered on days 1, 5 and 9. Mice were killed and tumor weight was measured on day 12 after transplantation. The percentage inhibition of tumor growth was calculated from the mean tumor weight of the treated group compared with that of the control group. Number of mice used in each group was between 6 to 7.

[7] = Mus musculus, Sarcoma-180, ip, 288 h, 12.5 mg/kg/day, tumor s.c., tumor weight day 12, read-out: % Inhibition of tumor growth
[8] = Mus musculus, Sarcoma-180, ip, 288 h, 25 mg/kg/day, tumor s.c., tumor weight day 12, read-out: % Inhibition of tumor growth
[9] = Mus musculus, Sarcoma-180, ip, 288 h, 50 mg/kg/day, tumor s.c., tumor weight day 12, read-out: % Inhibition of tumor growth
[10] = Mus musculus, Sarcoma-180, ip, 288 h, 100 mg/kg/day, tumor s.c., tumor weight day 12, read-out: % Inhibition of tumor growth
[11] = Mus musculus, Sarcoma-180, ip, 288 h, 6.3 mg/kg/day, tumor s.c., tumor weight day 12, read-out: % Inhibition of tumor growth

SMILES | IC50 [5] | Mortality in 12 days ([6]; 12.5 mg/kg/day) | Mortality in 12 days ([6]; 25 mg/kg/day) | Mortality in 12 days ([6]; 50 mg/kg/day) | inhibition in vivo at 12.5 mg/kg [6, 7] | inhibition in vivo at 25 mg/kg [6, 8] | inhibition in vivo at 50 mg/kg [6, 9] | other results
CC(C)C(N)C(=O)NC(C(=O)O)C(O)C1CN2C(=O)CC2O1 (centres unmarked) [Example G0069A] | – | – | – | – | – | – | – | IC50 ([1]; L-1210 sensitive, 3 days culture): 2.17 µg/mL (≈ 6.88 µM); IC50 ([2]; P388 sensitive, 3 days culture): 1.02 µg/mL (≈ 3.23 µM); IC50 ([3]; 72 h, P388 resistant, 3 days culture): 0.751 µg/mL (≈ 2.38 µM); IC50 ([4]; L-1210 resistant, 3 days culture): 1.87 µg/mL (≈ 5.93 µM)
CC[C@]1(O)C[C@H]2CN(CCc3c([nH]c4ccccc34)[C@@](C(=O)OC)(c3cc4c(cc3OC)N(C=O)[C@H]3[C@@](O)(C(=O)OC)[C@H](OC(C)=O)[C@]5(CC)C=CCN6CC[C@]43[C@@H]65)C2)C1 [Vincristine] | – | – | – | – | – | – | – | IC50 [1]: 0.002 µg/mL (≈ 0.00242 µM); IC50 ([3]; P388, 72 h): 0.279 µg/mL (≈ 0.338 µM); IC50 [4]: 0.2 µg/mL (≈ 0.242 µM)
CC(=O)NC(COC(C)=O)C(=O)OC[C@H]1CN2C(=O)C[C@@H]2O1 (mixture of isomers) [Example 75B, (3RS,5SR)-3-(2-Acetamido-3-acetoxypropanoyl)oxymethyl-4-oxa-1-azabicyclo[3.2.0]heptan-7-one] | 0.567 µg/mL (≈ 1.8 µM) | 0/6 | 0/6 | 4/6 | 37.8% | 65.1% | 77.8% | –
O=C(CCl)NC[C@@H]1CN2C(=O)C[C@H]2O1 (racemic) [Example 8, (3RS,5RS)-3-(N-Chloroacetylaminomethyl)-4-oxa-1-azabicyclo[3.2.0]heptan-7-one] | 0.084 µg/mL (≈ 0.384 µM) | – | – | – | – | – | – | Mortality in 12 days ([6]; 8.8 mg/kg/day): 0/6; Mortality in 12 days ([6]; 17.5 mg/kg/day): 0/6; Mortality in 12 days ([6]; 35 mg/kg/day): 1/6; inhibition in vivo at 8.8 mg/kg ([6]; Mus musculus, Sarcoma-180, ip, 288 h, 8.8 mg/kg/day, tumor s.c., tumor weight day 12, read-out: % Inhibition of tumor growth): 39%; inhibition in vivo at 17.5 mg/kg ([6]; Mus musculus, Sarcoma-180, ip, 288 h, 17.5 mg/kg/day, tumor s.c., tumor weight day 12, read-out: % Inhibition of tumor growth): 51.3%; inhibition in vivo at 35 mg/kg ([6]; Mus musculus, Sarcoma-180, ip, 288 h, 35 mg/kg/day, tumor s.c., tumor weight day 12, read-out: % Inhibition of tumor growth): 64%
COc1cccc2c1C(=O)c1c(O)c3c(c(O)c1C2=O)C[C@@](O)(C(=O)CO)C[C@@H]3O[C@H]1C[C@H](N)[C@H](O)[C@H](C)O1 [Adriamycin] | – | – | – | – | – | – | – | IC50 [1]: 0.004 µg/mL (≈ 0.00736 µM); IC50 [2]: 0.003 µg/mL (≈ 0.00552 µM); IC50 ([3]; P388, 72 h): 0.575 µg/mL (≈ 1.06 µM); IC50 [4]: 0.36 µg/mL (≈ 0.662 µM)
CC(=O)NCC(=O)NC[C@@H]1CN2C(=O)C[C@H]2O1 (relative stereo) [Example 44, (3RS,5RS)-3-N-(N-Acetylaminoacetyl)aminomethyl-4-oxa-1-azabicyclo[3.2.0]heptan-7-one] | 0.341 µg/mL (≈ 1.41 µM) | 0/6 | 4/6 | – | 45.9% | 85.3% | – | –
C[C@@H](N)C(=O)OC[C@H]1CN2C(=O)C[C@@H]2O1.Cl (mixture of isomers) [Example 51B, (3RS,5SR)-3-(D-2-Aminopropanoyl)oxymethyl-4-oxa-1-azabicyclo[3.2.0]heptan-7-one hydrochloride] | 0.867 µg/mL | 0/6 | 0/6 | 0/6 | 40.9% | 50.6% | 82.4% | Mortality in 12 days ([6]; 100 mg/kg/day): 5/6; inhibition in vivo at 100 mg/kg [6, 10]: 93.8%
O=C(NC[C@@H]1CN2C(=O)C[C@H]2O1)NC[C@@H]1CN2C(=O)C[C@H]2O1 (racemic) [Example 34, N,N'-Di-{[(3RS,5RS)-7-oxo-1-aza-4-oxabicyclo[3.2.0]hept-3-yl]methyl}urea] | 0.151 µg/mL (≈ 0.487 µM) | 0/6 | 5/6 | – | 76.3% | 92.5% | – | Mortality in 12 days ([6]; 6.25 mg/kg/day): 0/6; inhibition in vivo at 6.25 mg/kg ([6]; Mus musculus, Sarcoma-180, ip, 288 h, 6.25 mg/kg/day, tumor s.c., tumor weight day 12, read-out: % Inhibition of tumor growth): 59.8%
N[C@@H](CC(=O)O)C(=O)OC[C@H]1CN2C(=O)C[C@@H]2O1 (mixture of isomers) [Example 66B, (3RS,5SR)-3-(L-2-Amino-3-carboxypropanoyl)oxymethyl-4-oxa-1-azabicyclo[3.2.0]heptan-7-one] | 0.204 µg/mL | 0/6 | 0/6 | – | 53.2% | 62.9% | – | Mortality in 12 days ([6]; 6.3 mg/kg/day): 0/6; inhibition in vivo at 6.3 mg/kg [6, 11]: 33.7%
C[C@@H](N)C(=O)NCC1CN2C(=O)CC2O1 (stereo partly drawn) [Example 53B, (3RS,5RS)-3-N-(D-2-Aminopropanoyl)aminomethyl-4-oxa-1-azabicyclo[3.2.0]heptan-7-one hydrochloride] | 0.316 µg/mL | 0/6 | 1/6 | – | 61.9% | 73.8% | – | Mortality in 12 days ([6]; 6.3 mg/kg/day): 0/6; inhibition in vivo at 6.3 mg/kg [6, 11]: 47.3%
CC(=O)NC[C@H]1CN2C(=O)C[C@@H]2O1 [Example 2, (3S,5S)-3-(N-Acetylaminomethyl)-4-oxa-1-azabicyclo[3.2.0]heptan-7-one] | 0.77 µg/mL (≈ 4.18 µM) | – | – | – | – | – | – | Mortality in 12 days ([6]; 10 mg/kg/day): 0/6; Mortality in 12 days ([6]; 20 mg/kg/day): 1/7; inhibition in vivo at 10 mg/kg ([6]; Mus musculus, Sarcoma-180, ip, 288 h, 10 mg/kg/day, tumor s.c., tumor weight day 12, read-out: % Inhibition of tumor growth): 44.7%; inhibition in vivo at 20 mg/kg ([6]; Mus musculus, Sarcoma-180, ip, 288 h, 20 mg/kg/day, tumor s.c., tumor weight day 12, read-out: % Inhibition of tumor growth): 77.5%
CC(C)[C@@H](N)C(=O)OC[C@H]1CN2C(=O)C[C@@H]2O1.Cl (mixture of isomers) [Example 60B, (3RS,5SR)-3-(D-2-Amino-3-methylbutyryl)oxymethyl-4-oxa-1-azabicyclo[3.2.0]heptan-7-one hydrochloride] | 0.903 µg/mL | – | – | 0/6 | – | – | 49.8% | Mortality in 12 days ([6]; 100 mg/kg/day): 0/6; inhibition in vivo at 100 mg/kg [6, 10]: 77.7%
Cl.NCC(=O)NCC(=O)OC[C@H]1CN2C(=O)C[C@@H]2O1 (racemic) [Example 40B, (3RS,5SR)-3-[N-(Aminoacetyl)aminoacetyl]oxymethyl-4-oxa-1-azabicyclo[3.2.0]heptan-7-one hydrochloride] | 0.636 µg/mL | 0/6 | 0/6 | 0/6 | 48.3% | 54% | 72% | –
